Where “and” joins values, the source holds several entries; their conditions need not be identical. Equal values may be shown once.

The assay concerns anterior chamber aqueous humor pressure load rat model. The experiment in a line: Retinal thickness (IPL, INL, ONL) in retinal damage model induced by anterior chamber aqueous humor pressure load. The format is in vivo, Rat; Slc: SD. To be noted: for Thickness of INL (μm) / Thickness of IPL (μm) / Thickness of ONL (μm): 10 mg/mL intravenous (1 mL/kg once) about 30 minutes before ischemic load (test group 4), 14 days after model creation, mean ± S.E., 10 animals. How it is done: • Name: Compound 9 • Source: Synthesized in the above Examples • Used amount: 0.4 mL (50 mg/mL solution) • Storage conditions: Freezing, light shielding
Method for preparing test substance (1 mg/mL): A high concentration solution prepared at 50 mg/mL was diluted 50 times with a medium to prepare a 1 mg/mL administration solution.
• Name: MK-801 • Distributor: SIGMA-ALDRICH • Use amount: 0.0501 g • Storage condition: refrigerated (2° C. to 8° C.)
Method for preparing positive control substance (10 mg/mL): 0.0501 g was weighed out and made up to a total volume of 5 mL with a control substance (physiological saline).
• Species and strains: Rat; Slc: SD • Number of animals on arrival and sex: 50 males • Age in weeks at arrival: 6 weeks old • Body weight range at arrival: 147.2 to 170.0 g • Source: Japan SLC, Inc.
Grouping was performed two days before the first creation of the retinal damage model induced by an anterior chamber aqueous humor pressure load. Using the daily body weight as an index, stratified random allocation was performed using SAS (Ver. 9.3, SAS Institute Japan Ltd.) and EXSUS (Ver. 8.0, CAC Croit Corporation) so that an average value of the body weights of each group was approximately uniform.
• Administration route: Eyedrop administration, intravenous administration • Administration method (eyedrop): Eyedrop administration was performed on a treated eye (right eye) of a rat using a micropipette 4 times a day (at intervals of 1.5 hours or more). • Administration method (intravenous): The amount of administration solution, calculated from the body weight on the day of administration, was administered from the tail vein using a syringe and an injection needle about 30 minutes before ischemic load. • Time of administration: Administration was performed according to the following schedule.
1. 10 mg/kg xylazine hydrochloride was intramuscularly administered on the model creation day (day 0). A rat was placed in an anesthesia box and subjected to general anesthesia with isoflurane (5%, oxygen:nitrous oxide=1:3). When anesthesia was effective, the rat was taken out of the anesthesia box, an inhalation anesthetic mask was worn, and anesthesia was maintained with isoflurane (1% to 5%, oxygen nitrous oxide=1:3).
2. The body temperature was maintained at 37° C. with a warming mat, and a mydrin P ophthalmic solution was instilled in the right eye (treated eye) of the rat to dilate the pupil, then the cravit ophthalmic solution 1.5% (Santen Pharmaceutical Co., Ltd.) was instilled.
3. A bottle of an IV bag containing physiological saline was previously suspended so that a water surface was 155 cm (100 mmHg or more) higher than the eye of the rat. The IV bag was connected to a pediatric infusion set (Terumo Corporation), a 27 G injection needle thereof was inserted into and fixed to the anterior chamber while slightly dripping the liquid from a needle tip. The model was created in the light phase (6:00 to 18:00) in consideration of the diurnal variation of the intraocular pressure.
4. After the needle was inserted into the anterior chamber, pressure (100 mmHg or more) was loaded and maintained in the anterior chamber by associating the reflux system.
5. After an ischemic load for 45 minutes, the injection needle and the like were removed, the inhalation anesthetic mask was removed, and the rat was sufficiently woken up under a warming mat, and then returned to the cage.
6. For 2 days after surgery, 10 mg/kg xylazine hydrochloride was intramuscularly administered as an analgesic for the purpose of alleviating the pain after the treatment.
1. Fourteen days after model creation, general anesthesia was performed with isoflurane (5%, oxygen:nitrous oxide=1:3), euthanasia was then performed by exsanguination, a suture was placed as a marker at the 12 o'clock position of the ocular conjunctiva, and eyeball enucleation was performed.
2. […]

Where [1] appears, read: 10 mg/mL intravenous, right eye, 600 μm from optic disk, mean per animal.
The mark [2] stands for this setting: 10 mg/mL intravenous, right eye, 900 μm from optic disk, individual measurements per animal.
Setting [3] is: 10 mg/mL intravenous, right eye, 900 μm from optic disk, mean per animal.
[4] abbreviates: MK-801, 10 mg/mL intravenous, right eye, individual animals 401-410.
The mark [5] stands for this setting: test group 4 (positive control, intravenous).

Take `C[C@]12N[C@H](Cc3ccccc31)c1ccccc12` [MK-801, reference compound]: the “Thickness of IPL (μm), Distance from Optic Disk 600 μm” value (10 mg/mL intravenous, right eye, 600 μm from optic disk, individual measurements per animal) was 51.638 μm and 52.865 μm and 43.668 μm and 44.847 μm and 43.645 μm and 46.040 μm and 48.131 μm and 48.555 μm and 40.323 μm and 42.059 μm and 40.708 μm and 38.245 μm and 23.016 μm and 30.373 μm and 47.349 μm and 49.055 μm and 51.482 μm and 47.356 μm and 46.081 μm and 48.016 μm and 49.876 μm and 42.369 μm and 44.364 μm and 47.408 μm and 44.018 μm and 42.681 μm and 28.572 μm and 45.620 μm and 44.033 μm and 47.914 μm. Under setting [1], the “Thickness of INL (μm), Distance from Optic Disk 600 μm, Mean” value is 37.378 μm and 28.006 μm and 30.469 μm and 44.484 μm and 31.392 μm and 28.027 μm and 18.807 μm and 31.969 μm and 25.534 μm and 35.604 μm; the “Thickness of IPL (μm), Distance from Optic Disk 600 μm, Mean” value is 51.460 μm and 43.628 μm and 44.683 μm and 48.031 μm and 42.133 μm and 40.545 μm and 27.320 μm and 47.341 μm and 47.624 μm and 47.337 μm. Under setting [2], the “Thickness of INL (μm), Distance from Optic Disk 900 μm” value was 38.448 μm and 33.242 μm and 40.306 μm and 28.655 μm and 32.584 μm and 30.110 μm and 27.670 μm and 26.653 μm and 27.205 μm and 46.278 μm and 47.196 μm and 49.419 μm and 26.256 μm and 28.272 μm and 28.572 μm and 28.638 μm and 29.653 μm and 28.909 μm and 18.887 μm and 19.638 μm and 20.068 μm and 28.079 μm and 29.083 μm and 31.101 μm and 27.776 μm and 27.037 μm and 27.422 μm and 33.221 μm and 42.252 μm and 40.931 μm; the “Thickness of IPL (μm), Distance from Optic Disk 900 μm” value is 53.305 μm and 54.992 μm and 50.505 μm and 49.780 μm and 48.950 μm and 49.327 μm and 45.307 μm and 46.968 μm and 47.454 μm and 59.185 μm and 57.507 μm and 59.952 μm and 47.370 μm and 46.144 μm and 43.062 μm and 44.289 μm and 45.534 μm and 44.647 μm and 26.506 μm and 30.220 μm and 35.348 μm and 47.148 μm and 37.774 μm and 39.021 μm and 47.795 μm and 46.694 μm and 44.145 μm and 52.722 μm and 49.687 μm and 46.942 μm. Also, under setting [3], the “Thickness of INL (μm), Distance from Optic Disk 900 μm, Mean” value is 37.332 μm and 30.450 μm and 27.176 μm and 47.631 μm and 27.700 μm and 29.067 μm and 19.531 μm and 29.421 μm and 27.412 μm and 38.801 μm; the “Thickness of IPL (μm), Distance from Optic Disk 900 μm, Mean” value was 52.934 μm and 49.352 μm and 46.576 μm and 58.881 μm and 45.525 μm and 44.823 μm and 30.691 μm and 41.314 μm and 46.211 μm and 49.784 μm. Moreover, for the setting “300 μm from optic disk”, the “Thickness of INL (μm)” value is recorded as 28.96±1.66 μm, the “Thickness of IPL (μm)” value was 38.05±1.38 μm and the “Thickness of ONL (μm)” value worked out at 42.08±1.66 μm. Besides, under “600 μm from optic disk”, the “Thickness of INL (μm)” value stood at 31.17±2.21 μm, the “Thickness of IPL (μm)” value is recorded as 44.01±2.11 μm and the “Thickness of ONL (μm)” value came out at 45.28±1.75 μm. Under “900 μm from optic disk”, the “Thickness of INL (μm)” value was found to be 31.45±2.48 μm, the “Thickness of IPL (μm)” value turned out to be 46.61±2.34 μm and the “Thickness of ONL (μm)” value came out at 45.02±1.52 μm. Besides, under setting [4], the “Thickness of ONL, distance from optic disk 300 μm (single measurement)” value was 49.987 μm and 47.894 μm and 44.120 μm and 44.371 μm and 45.163 μm and 41.953 μm (2×) and 41.468 μm and 43.326 μm and 44.787 μm and 50.806 μm and 50.609 μm and 36.032 μm and 35.996 μm and 37.658 μm and 33.339 μm and 36.442 μm and 39.921 μm and 32.751 μm and 35.889 μm and 35.090 μm and 45.922 μm and 43.490 μm and 44.532 μm and 39.787 μm and 38.794 μm and 36.469 μm and 48.975 μm and 47.935 μm and 47.053 μm; the “Thickness of ONL, distance from optic disk 600 μm (single measurement)” value is 54.862 μm and 55.200 μm and 39.132 μm and 42.030 μm and 46.694 μm and 48.910 μm and 53.036 μm and 51.036 μm and 37.502 μm and 37.761 μm and 41.216 μm and 41.515 μm and 39.682 μm and 37.237 μm and 46.859 μm and 44.945 μm and 44.217 μm and 44.145 μm and 50.162 μm and 48.259 μm and 48.902 μm and 41.131 μm and 49.194 μm and 53.714 μm and 39.721 μm and 42.784 μm and 37.125 μm and 46.818 μm and 44.498 μm and 50.125 μm; the “Thickness of ONL, distance from optic disk 900 μm (single measurement)” value is 50.646 μm and 51.429 μm and 55.123 μm and 43.100 μm and 44.611 μm and 41.813 μm and 43.865 μm and 45.150 μm and 42.936 μm and 50.620 μm and 52.065 μm and 51.575 μm and 38.927 μm and 44.018 μm and 42.314 μm and 45.648 μm and 44.179 μm and 43.513 μm and 35.404 μm and 34.065 μm and 37.439 μm and 46.755 μm and 42.208 μm and 44.217 μm and 44.685 μm and 43.759 μm and 46.364 μm and 47.690 μm and 47.148 μm and 49.406 μm. Besides, under setting [5], the “Inner nuclear layer (INL) thickness compared with the control group, in words” value was “no obvious change was observed” and the “Outer nuclear layer (ONL) thickness compared with the control group, in words” value is “statistically significant differences were observed at measurement sites between 600 to 900 μm from the optic disk”. Further, under “test group 4 (positive control, intravenous), 300 to 900 μm from the optic disk”, the “Inner plexiform layer (IPL) thickness compared with the control group, in words” value was “statistically significant suppression of retinal damage was shown at all measurement sites”.

The record behind these values is US20260091082A1, “CYCLIC PEPTIDE DERIVATIVE COMPOSITION FOR TREATING OR PREVENTING EYE DISEASE” (DKS Co. Ltd., priority 2022, published 2026).
